In PubChem BioAssay (NCI):
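A five-concentration, 48-hour dose response in 96-well plates underlies each endpoint, interpolated linearly between surrounding concentrations. GI50 = concentration required for 50% inhibition of growth. TGI denotes the concentration required for complete inhibition of growth.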

Tests used:
Test in all cases: NCI-60 cell line screen, 48 h
DU-145 prostate = test system: DU-145 prostate
MCF7 breast = test system: MCF7 breast
U251 CNS = test system: U251 CNS
BT-549 breast = test system: BT-549 breast
MDA-MB-231 breast = test system: MDA-MB-231 breast
HS 578T breast = test system: HS 578T breast

## C/C(=N\Nc1ccc(Cl)cn1)c1ccc2ccccc2n1
DU-145 prostate
  GI50: 4.03 µM
  TGI: > 100 µM
MCF7 breast
  GI50: 2.85 µM
  TGI: > 100 µM
U251 CNS
  GI50: 2.83 µM
  TGI: > 100 µM
BT-549 breast
  GI50: 2.62 µM
  TGI: > 100 µM
MDA-MB-231 breast
  GI50: 3.36 µM
  TGI: > 100 µM
HS 578T breast
  GI50: 4.78 µM
  TGI: > 100 µM

## O=C1/C(=C(/c2ccccc2)N2CCOCC2)Cc2ccccc21
DU-145 prostate
  GI50: 0.948 µM
  TGI: 2.29 µM
MCF7 breast
  GI50: 1.54 µM
  TGI: 7.38 µM
U251 CNS
  GI50: 1.65 µM
  TGI: 4.57 µM
BT-549 breast
  GI50: 1.26 µM
  TGI: 3.2 µM
MDA-MB-231 breast
  GI50: 2.3 µM
  TGI: 5.48 µM
HS 578T breast
  GI50: 2.63 µM
  TGI: 12.9 µM

## COC(=O)Nc1nc2ccc(C3(c4ccc(F)cc4)OCCO3)cc2[nH]1
DU-145 prostate
  GI50: 0.363 µM
  TGI: > 100 µM
MCF7 breast
  GI50: 0.18 µM
  TGI: > 100 µM
U251 CNS
  GI50: 0.398 µM
  TGI: > 100 µM
BT-549 breast
  GI50: 2.77 µM
  TGI: > 100 µM
MDA-MB-231 breast
  GI50: 0.598 µM
  TGI: 99.5 µM
HS 578T breast
  GI50: 0.315 µM
  TGI: > 69.9 µM

## CCOC(=O)C1CCN(S(=O)(=O)/N=C2/NC(=O)NC2=C(Cl)Cl)CC1
DU-145 prostate
  GI50: 2.37 µM
  TGI: 15.1 µM
MCF7 breast
  GI50: 0.33 µM
  TGI: 22 µM
U251 CNS
  GI50: 1.9 µM
  TGI: 3.47 µM
BT-549 breast
  GI50: 1.68 µM
  TGI: 3.65 µM
MDA-MB-231 breast
  GI50: 1.94 µM
  TGI: 3.54 µM
HS 578T breast
  GI50: 9.14 µM
  TGI: 65.3 µM

## CCc1nc2cc(F)c(/C=C/C(=O)NO)cc2c(=O)n1CCc1ccccc1
DU-145 prostate
  GI50: 0.358 µM
  TGI: 10.5 µM
MCF7 breast
  GI50: 0.302 µM
  TGI: > 100 µM
U251 CNS
  GI50: 0.277 µM
  TGI: 0.891 µM
BT-549 breast
  GI50: 0.377 µM
  TGI: 12.6 µM
MDA-MB-231 breast
  GI50: 0.376 µM
  TGI: 15.3 µM
HS 578T breast
  GI50: 0.489 µM
  TGI: 26.9 µM

## COc1c2c(cc3c1OCO3)[C@]13C=C[C@H](OC)C[C@H]1N(C2)CC3O (stereo partly drawn)
DU-145 prostate
  TGI: > 100 µM
MCF7 breast
  TGI: > 100 µM
U251 CNS
  TGI: > 100 µM
BT-549 breast
  TGI: > 100 µM
MDA-MB-231 breast
  TGI: > 100 µM
HS 578T breast
  TGI: > 100 µM

## CC12OC(C(=O)C13CC3)C1C(=O)c3ccc4c(ccc5ccccc54)c3C(=O)C12 (stereo not drawn)
MCF7 breast
  GI50: 23.1 µM
  TGI: > 100 µM
BT-549 breast
  GI50: 29.6 µM
  TGI: 55.9 µM
MDA-MB-231 breast
  GI50: 13 µM
  TGI: 77.9 µM
HS 578T breast
  GI50: 42.2 µM
  TGI: > 100 µM

## O=C(Nc1n[nH]c2cc(-c3ccccc3)ccc12)C1CC1
DU-145 prostate
  GI50: 9.28 µM
  TGI: > 25 µM
MCF7 breast
  GI50: 3.95 µM
  TGI: > 25 µM
U251 CNS
  GI50: 13.6 µM
  TGI: > 25 µM
BT-549 breast
  GI50: 15.5 µM
  TGI: > 25 µM
MDA-MB-231 breast
  GI50: 14.7 µM
  TGI: > 25 µM
HS 578T breast
  GI50: 18.9 µM
  TGI: > 25 µM

## Cc1cc2nc(C=C(C(F)(F)F)C(F)(F)F)oc2cc1C
DU-145 prostate
  TGI: > 10 µM
MCF7 breast
  TGI: > 10 µM
U251 CNS
  TGI: > 10 µM
BT-549 breast
  TGI: 6.13 µM
MDA-MB-231 breast
  TGI: 5.42 µM
HS 578T breast
  TGI: 8.84 µM

## COc1cc2ncnc(-n3ncc4cc(NC(=O)Nc5ccccc5)ccc43)c2cc1OC
DU-145 prostate
  GI50: 0.867 µM
  TGI: 11.4 µM
MCF7 breast
  GI50: 0.234 µM
  TGI: 1.9 µM
U251 CNS
  GI50: 1.27 µM
  TGI: 3.23 µM
BT-549 breast
  GI50: 1.55 µM
  TGI: 12 µM
MDA-MB-231 breast
  GI50: 1.39 µM
  TGI: 4.92 µM
HS 578T breast
  GI50: 0.299 µM
  TGI: 3.37 µM

## Cc1cc(C(=O)Nc2ccc3cc(CN4CCOCC4)ccc3n2)c(C)n1-c1ccccc1
DU-145 prostate
  GI50: 3.6 µM
  TGI: 35.7 µM
MCF7 breast
  GI50: 1.87 µM
  TGI: 10.8 µM
U251 CNS
  GI50: 3.78 µM
  TGI: > 100 µM
BT-549 breast
  GI50: 1.17 µM
  TGI: 5.84 µM
MDA-MB-231 breast
  GI50: 8.09 µM
  TGI: 51.8 µM
HS 578T breast
  GI50: 4 µM
  TGI: 44.6 µM

## C=CCCCCC/C=C\[C@@H](O)C#CC#C/C=C/CO
DU-145 prostate
  GI50: > 100 µM
  TGI: > 100 µM
MCF7 breast
  GI50: 32.7 µM
  TGI: > 100 µM
U251 CNS
  GI50: 38.7 µM
  TGI: > 100 µM
BT-549 breast
  GI50: 49.9 µM
  TGI: > 100 µM
MDA-MB-231 breast
  GI50: 40 µM
  TGI: > 100 µM
HS 578T breast
  GI50: > 100 µM
  TGI: > 100 µM

## C=C(C)[C@@H]1CC[C@]2(CO)CC[C@]3(C)[C@H](CC[C@@H]4[C@@]5(C)C=C(C#N)C(=O)C(C)(C)[C@@H]5CC[C@]43C)[C@@H]12
DU-145 prostate
  GI50: 1.97 µM
  TGI: 5.75 µM
MCF7 breast
  GI50: 0.34 µM
  TGI: 7.66 µM
U251 CNS
  GI50: 1.36 µM
  TGI: 2.8 µM
BT-549 breast
  GI50: 2.13 µM
  TGI: 6.18 µM
MDA-MB-231 breast
  GI50: 1.56 µM
  TGI: 4.82 µM
HS 578T breast
  GI50: 1.89 µM
  TGI: 6.84 µM

## CC1(C)C(=O)/C(=C\c2cccnc2)C[C@]2(C)[C@H]3CC[C@@H]4[C@H]5[C@H](C(=O)/C=C/c6cccnc6)CC[C@]5(C(=O)O)CC[C@@]4(C)[C@]3(C)CC[C@@H]12
DU-145 prostate
  GI50: 2.1 µM
  TGI: 5 µM
MCF7 breast
  GI50: 2.56 µM
  TGI: 10.7 µM
U251 CNS
  GI50: 1.74 µM
  TGI: 3.26 µM
BT-549 breast
  GI50: 1.95 µM
  TGI: 4.41 µM
HS 578T breast
  GI50: 7.61 µM
  TGI: > 100 µM

## CC(C)c1c(O)c(O)c2c(c1O)C(=O)C(O)=C1C(C)(C)CCC[C@@]12C
DU-145 prostate
  TGI: 18.1 µM
MCF7 breast
  TGI: 12.7 µM
U251 CNS
  TGI: 11.1 µM
BT-549 breast
  TGI: 13 µM
MDA-MB-231 breast
  TGI: 7.29 µM
HS 578T breast
  TGI: 43.5 µM

## COc1ccc(-c2[nH]c3ccc(OC)cc3c2/C=C(\C#N)S(=O)(=O)c2ccccc2)cc1
DU-145 prostate
  GI50: 0.785 µM
  TGI: > 31.4 µM
MCF7 breast
  GI50: 0.774 µM
  TGI: > 100 µM
U251 CNS
  GI50: 0.557 µM
  TGI: > 100 µM
BT-549 breast
  GI50: 4.51 µM
  TGI: > 100 µM
MDA-MB-231 breast
  GI50: 1.32 µM
  TGI: > 30.7 µM
HS 578T breast
  GI50: 0.531 µM
  TGI: 7.25 µM

## S=c1ssc(N2CCOCC2)c1Cl
DU-145 prostate
  GI50: 20.3 µM
  TGI: 56.5 µM
U251 CNS
  GI50: 15 µM
  TGI: 28.3 µM
MDA-MB-231 breast
  GI50: 26.6 µM
  TGI: > 100 µM

## CN1CCN(CCCNc2nc3ccc(Oc4ccc(NC(=O)Nc5cc(C(F)(F)F)ccc5F)cc4)cc3[nH]2)CC1
DU-145 prostate
  GI50: 5.17 µM
  TGI: 12.5 µM
MCF7 breast
  GI50: 4.05 µM
  TGI: 7.61 µM
U251 CNS
  GI50: 3.86 µM
  TGI: 7.38 µM
BT-549 breast
  GI50: 4.23 µM
  TGI: 8.04 µM
MDA-MB-231 breast
  GI50: 3.97 µM
  TGI: 7.65 µM
HS 578T breast
  GI50: 3.67 µM
  TGI: 8.26 µM

## COc1cc2c3c(n(CCCN)c(=O)c2cc1OC)-c1ccc(C#N)cc1C3=O
DU-145 prostate
  GI50: 12.3 µM
  TGI: 25.5 µM
MCF7 breast
  GI50: 8.36 µM
  TGI: 40.1 µM
U251 CNS
  GI50: 13 µM
  TGI: 28.4 µM
MDA-MB-231 breast
  GI50: 14.3 µM
  TGI: 29.3 µM
HS 578T breast
  GI50: 18 µM
  TGI: 41.5 µM

## COCC[C@H]1CCC/C=C/[C@@H]2C[C@H](O)C[C@H]2[C@H](O)/C=C/C(=O)O1
DU-145 prostate
  GI50: 0.445 µM
  TGI: > 100 µM
MCF7 breast
  GI50: 0.0437 µM
  TGI: 0.171 µM
U251 CNS
  GI50: 0.166 µM
  TGI: > 100 µM
BT-549 breast
  GI50: 0.132 µM
  TGI: > 90.9 µM
MDA-MB-231 breast
  GI50: 0.131 µM
  TGI: 0.322 µM
HS 578T breast
  GI50: 0.0506 µM
  TGI: > 100 µM
